Reference: patent US20150202179A1, “FATTY ACID DERIVATIVES FOR USE IN A METHOD OF TREATING DEPRESSION AND ASSOCIATED CONDITIONS” (YISSUM RESEARCH DEVELOPMENT COMPANY OF THE HEBREW …, priority 2012, published 2015)
Read-outs that look alike come from different tables or passages of the source.

How the values were obtained:
[1] = Weight and food consumption in OB/OB mice which lack the leptin gene; format: in vivo
Source text: (§1) Thus the compounds of the invention can be used to treat conditions that are mediated by the enhancement of leptin levels. In obesity there is high leptin level however the leptin receptors are not responding. High CNS leptin level has anti-depression effect however, if there is tolerance there is no anti depression effect.

[2] = Body weight of C57BL/6 mice; format: in vivo
Source text: as §1

[3] = Tail Suspension Test, separated BALB/c mice (model for depression); format: in vivo; conditions: compounds 1 mg/kg i.p., imipramine 10 mg/kg i.p.; day 7; in relation to vehicle
Source text: (§2) Tail suspension test (TST): Animals are suspended upside down by adhesive tape placed 1 cm from the tail tip. The elevation of the animal is 50 cm from the nearest surface. […] Statistical analysis compares the magnitude of immobility (in seconds) between different treatment groups. In this test, antidepressants characteristically cause an increase of the time fraction spent by the animal as active at the expense of the inactivity period.
50, 2 month old female BALB/c mice were separated (each mouse in a different cage) for 9 days period (a model for depression). On days 7, 8, 9, 34-40 mice were administered with either vehicle or compounds X, 12 and 15 (1 mg/kg i.p.) or imipramine 10 mg/kg (anti-depressant) i.p. and tested in the Tail suspension test on day 7 of the experiment (10 mice per group).

[4] = Forced Swim Test (FST), separated BALB/c mice; format: in vivo; conditions: compounds 1 mg/kg i.p., imipramine 10 mg/kg i.p.; day 8; in relation to vehicle
Protocol: (§3) Forced swim test (FST): The animal is placed in a circular, transparent, plexiglass tank measuring 21 cm in diameter and 46 cm in height containing water 15 cm high, maintained at 23-25° C. […] Also measured is the latency period, the time elapsing, for each animal from immersion in the water tank until the first occurrence of immobility. Since climbing activity is minimal in mice, […].
(§4) 50, 2 month old female BALB/c mice, 10 mice per group, on ad libitum diet were separated (each mouse in a different cage) for 9 days (Separation Stress, a model for depression). On the 7, 8, 9, 34-40 days mice were administered with either vehicle or compounds x, 12 and 15 (1 mg/kg i.p.) or imipramine 10 mg/kg (antidepressant) i.p. and tested in the forced swim test (FST) on day 8.

POMC protein = POMC protein expression by western blot; format: in vivo, BALB/c mice
Protocol: as §4, with “(antidepressant). POMC protein was monitored by western blot.” for “(antidepressant) i.p. and tested in the forced swim test (FST) on day 8.”

P-AMPK protein = P-AMPK protein levels by western blot; format: in vivo, BALB/c mice
Protocol: as §4, with “(antidepressant). P-AMPK protein was monitored by western blot. […] (p<0.05a).” for “(antidepressant) i.p. and tested in the forced swim test (FST) on day 8.”

p-SAPK/JNK = p-SAPK/JNK levels in the hypothalamus; format: in vivo, BALB/c mice; conditions: FIG. 16
Source text: 50, 2 month old female BALB/c mice, 10 mice per group, on ad libitum diet were separated (each mouse in a different cage) for 9 days (Separation Stress, a model for depression).

[5] = Forced Swim Test, compound X dose study; format: in vivo, BALB/c mice; conditions: day 11
Protocol: as §3
50, 2 month old BALB/c mice, 10 mice per group, on ad libitum diet were divided to 5 experimental groups with equal weight. On the 2, 3, 4, 5, 9, 11, 16, 18, 23, 25, 29, 31 days mice were administered with either vehicle or compound X 0.1, 1, 10 mg/kg i.p. or imipramine 10 mg/kg. Forced Swim Test was evaluated on day 11.

[6] = Tail Suspension Test, compound X dose study; format: in vivo, BALB/c mice; conditions: 10 mg/kg i.p.; day 23; more than imipramine and other concentrations
Source text: as §2
(§5) 50, 2 month old BALB/c mice, 10 mice per group, on ad libitum diet were divided to 5 experimental groups with equal weight. On the 2, 3, 4, 5, 9, 11, 16, 18, 23, 25, 29, 31 days mice were administered with either vehicle or compound x 0.1, 1, 10 mg/kg i.p. or imipramine 10 mg/kg.

[7] = Open Field Test, compound X dose study; format: in vivo, BALB/c mice; conditions: 10 mg/kg i.p.; day 25; better than the other concentrations
Protocol: as §5, with “mg/kg Open Field Test was evaluated on day 25. The more time they spent on the […] the less depressed.” for “mg/kg.”

In the case of `CCCCCCCC/C=C\CCCCCCCC(=O)N[C@H](CO)C(C)C` [Compound 1, oleoyl-L-valinol amide], the food consumption [1] is reported as “did not change”, the “weight (weight loss)” value [1] is reported as “did not change” and the “weight (weight loss)” value ([1]; listed as OVA) is reported as “not body weight”. The “weight (weight loss)” value ([1]; listed as X) was “do not produce weight loss”, the body weight [2] was “decreased body weight” and the “activity in Tail Suspension Test” value [3] was “significantly enhanced activity”. For the same molecule, the “swimming activity in forced swim test” value [4] was “significantly enhanced swimming activity”, the “POMC protein expression in the hippocampus” value (POMC protein; hippocampus, FIG. 12) was “increased significantly” and the “POMC protein expression in the hypothalamus” value (POMC protein; hypothalamus, FIG. 11) was “increased significantly”. The “P-AMPK protein in the hippocampus” value (P-AMPK protein; hippocampus, FIG. 14A) was “significant increase”, the “P-AMPK protein in the hypothalamus” value (P-AMPK protein; hypothalamus, FIG. 14B) was “significant increase” and the “p-SAPK/JNK levels in the hypothalamus” value (p-SAPK/JNK) was “significant decrease”. For the same molecule, the “swimming activity in forced swim test” value ([5]; 0.1 mg/kg i.p.) was “improved significantly swimming activity”, the “swimming activity in forced swim test” value ([5]; 1 mg/kg i.p., better than imipramine 10 mg/kg) was “improved significantly swimming activity” and the “swimming activity in forced swim test” value ([5]; 10 mg/kg i.p., better than imipramine 10 mg/kg) was “improved significantly swimming activity”. For the same molecule, the “motor activity in Tail Suspension Test” value [6] was “improved significantly motor activity” and the “motor activity in Open Field Test” value [7] was “improved motor activity like the impramine”.
